Measurements as given in US20110054031A1, “Ophthalmic NSAIDS as Adjuvants” (ISTA Pharmaceuticals, Inc., priority 2008, published 2011).

Tests used:
COX-2 [1] = molecular target: T1, COX-2 (Homo sapiens, UniProt P35354); assay: COX-2 enzyme inhibition (Table 1, relative potency of ocular NSAIDs); type: biochemical; conditions: ratio of IC50 values
T1 sequence (P35354 18-604): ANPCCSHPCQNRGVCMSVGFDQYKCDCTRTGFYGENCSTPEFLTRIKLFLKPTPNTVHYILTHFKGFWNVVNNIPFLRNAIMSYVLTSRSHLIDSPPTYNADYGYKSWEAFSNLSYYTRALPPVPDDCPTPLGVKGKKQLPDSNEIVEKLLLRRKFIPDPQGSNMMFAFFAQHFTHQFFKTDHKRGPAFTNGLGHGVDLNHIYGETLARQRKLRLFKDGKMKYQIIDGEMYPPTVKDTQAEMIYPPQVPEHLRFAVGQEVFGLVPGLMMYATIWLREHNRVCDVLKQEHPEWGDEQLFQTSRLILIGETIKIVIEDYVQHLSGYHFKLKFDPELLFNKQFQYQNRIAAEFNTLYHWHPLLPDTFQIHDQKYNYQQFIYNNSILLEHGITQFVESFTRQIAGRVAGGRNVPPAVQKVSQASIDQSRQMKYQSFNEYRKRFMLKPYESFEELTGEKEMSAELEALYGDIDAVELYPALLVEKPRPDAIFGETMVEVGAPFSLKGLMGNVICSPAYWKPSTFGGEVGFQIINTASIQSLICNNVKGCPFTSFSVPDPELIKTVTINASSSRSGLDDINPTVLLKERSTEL
Excerpt: NSAIDs vary in their relative potency against COX-1 and COX-2. […] Several in vitro assays are used to determine IC50 values, making the values dependent upon the animal model (tissue and stimulus) used in the experiment and variable between laboratories. Thus, it is important that the assay type is defined when making comparisons between IC50 measurements.

COX-1 = COX-1 (Homo sapiens, UniProt P23219); conditions: cited from earlier work
COX-2 [2] = molecular target: T1, COX-2; conditions: cited from earlier work
[3] = cited from earlier work
[4] = system: choroidal neovascularization (CNV); assay: Laser photocoagulation-induced choroidal neovascularization in mice; type: in vivo, C57BL/6J mice; conditions: 2 weeks of treatment after laser burn, versus saline, BF 0.1% topical 4 μL four times per day, sVEGFR-1/Fc 250 ng
Method: Methods: Six-week female C57BL/6J mice received laser burns with 514-argon laser at the posterior retina; 19 mice with successful burns were randomly assigned to 1 of 3 treatment groups: BF 0.1%, saline with or without 250 ng sVEGFR-1/Fc immediately after laser burn. Mice were treated with 4 μL of BF 0.1% or saline four times per day for 2 weeks. Then deeply anaesthetized mice were perfused with 50 mg/mL flourescein-labeled dextran, eyes were enucleated and fixed in buffered formalin. Flat mounts of the RPE-choroid-sclera were observed by fluorescence microscope. Total area of hyperfluorescent neovascualature was measured using image-analysis software

[5] = molecular target: T2, COX-2 purified from rabbit alveolar macrophage (Oryctolagus cuniculus, UniProt O02768); conditions: cited from earlier work
T2 construct: from tissue; host or cells: rabbit alveolar macrophage
T2 sequence (O02768 18-604): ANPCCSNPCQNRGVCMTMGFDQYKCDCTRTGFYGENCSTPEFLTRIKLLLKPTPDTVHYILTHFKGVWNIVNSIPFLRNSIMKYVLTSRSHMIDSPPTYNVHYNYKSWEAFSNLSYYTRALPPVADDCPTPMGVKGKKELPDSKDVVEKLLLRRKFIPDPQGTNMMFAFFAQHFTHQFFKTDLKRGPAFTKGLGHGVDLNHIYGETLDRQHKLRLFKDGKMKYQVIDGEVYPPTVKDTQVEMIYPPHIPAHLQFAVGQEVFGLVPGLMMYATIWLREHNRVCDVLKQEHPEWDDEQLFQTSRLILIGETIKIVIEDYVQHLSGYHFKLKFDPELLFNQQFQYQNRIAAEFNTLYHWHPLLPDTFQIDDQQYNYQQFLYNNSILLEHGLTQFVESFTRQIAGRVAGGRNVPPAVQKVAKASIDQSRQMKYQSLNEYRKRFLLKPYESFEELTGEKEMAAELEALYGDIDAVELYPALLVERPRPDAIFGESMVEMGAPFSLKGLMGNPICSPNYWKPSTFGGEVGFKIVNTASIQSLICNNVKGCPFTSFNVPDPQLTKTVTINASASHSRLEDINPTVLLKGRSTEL

human recombinants COX-2 = molecular target: T3, human recombinants COX-2 (Homo sapiens, UniProt P35354); conditions: relative to ketorolac; cited from earlier work
T3 sequence (P35354 18-604): T1 sequence (P35354 18-604)

prostaglandin synthesis = conditions: in vitro, relative to indomethacin; cited from earlier work
[6] = eye drops; cited from earlier work

Sequence of COX-1 (P23219 24-599): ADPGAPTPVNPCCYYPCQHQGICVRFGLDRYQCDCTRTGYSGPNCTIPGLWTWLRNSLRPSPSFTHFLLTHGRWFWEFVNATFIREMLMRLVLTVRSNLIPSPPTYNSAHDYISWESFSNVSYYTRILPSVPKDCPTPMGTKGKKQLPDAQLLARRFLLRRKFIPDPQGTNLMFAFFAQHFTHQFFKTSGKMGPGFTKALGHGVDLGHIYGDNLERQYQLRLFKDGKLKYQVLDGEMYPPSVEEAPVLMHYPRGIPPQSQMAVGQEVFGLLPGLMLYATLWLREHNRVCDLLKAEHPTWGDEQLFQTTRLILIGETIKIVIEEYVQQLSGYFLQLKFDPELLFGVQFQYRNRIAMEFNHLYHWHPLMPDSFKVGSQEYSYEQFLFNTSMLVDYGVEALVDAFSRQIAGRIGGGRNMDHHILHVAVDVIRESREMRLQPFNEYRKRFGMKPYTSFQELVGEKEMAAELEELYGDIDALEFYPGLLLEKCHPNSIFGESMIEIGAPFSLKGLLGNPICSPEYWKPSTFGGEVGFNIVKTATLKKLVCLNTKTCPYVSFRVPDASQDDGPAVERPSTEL

## NC(CO)(CO)CO.O=C(c1ccccc1)c1ccc2n1CCC2C(=O)O (racemic) [ketorolac, (±)-5-benzoyl-2,3-dihydro-1H pyrrolizine-1-carboxylic acid, 2-amino-2-(hydroxymethyl)-1,3-propanediol salt (1:1)]
COX-2 [1]
  Ratio COX-1/COX-2: 0.167
COX-1
  IC50: 20 nM
COX-2 [2]
  IC50: 120 nM

## NC(=O)Cc1cccc(C(=O)c2ccccc2)c1N [nepafenac, 2-amino-3-benzoyl-benzeneacetamide]
COX-2 [1]
  Ratio COX-1/COX-2: 1.67
COX-1
  IC50: 250 nM
COX-2 [2]
  IC50: 150 nM

## Lucentis: recombinant humanized IgG1 kappa isotype monoclonal antibody fragment designed for intravitreal use
[3]; Lucentis clinical trials
  rate of arterial thromboembolic events: < 4%
[3]; endophthalmitis, rhegmatogenous retinal detachments, iatrogenic traumatic cataracts
  serious adverse reactions related to the intravitreal injection procedure: < 0.1 % of injections
[3]; human, in vivo
  time after intravitreal injection at which increases in intraocular pressure were noted: ≤ 60 min
[3]; intraocular inflammation and increased intraocular pressure
  other serious ocular adverse reactions: < 2 % of patients

## Nc1c(CC(=O)[O-])cccc1C(=O)c1ccc(Br)cc1.Nc1c(CC(=O)[O-])cccc1C(=O)c1ccc(Br)cc1.O.O.O.[Na+].[Na+] [bromfenac, sodium 2-amino-3-(4-bromobenzoyl)phenylacetate sesquihydrate]
[4]
  reduction of area of choroidal neovascularization (CNV lesions): 71%
COX-2 [2]
  IC50: 23 nM
[5]; relative to amfenac
  inhibitory effect on COX-2, times greater than amfenac: 6.5 times
[5]; relative to diclofenac
  inhibitory effect on COX-2, times greater than diclofenac: 3.7 times
Human recombinants COX-2
  inhibitory effect on COX-2, times more potent than ketorolac: 18 times
Prostaglandin synthesis
  inhibition of prostaglandin synthesis, times greater than indomethacin: approximately 12 times
[6]
  stability in aqueous solution: stable for a long period of time
